The results in this text go back to patent US9957209B2, “Use of quinone methides as antipolymerants for vinylic monomers” (Ecolab USA Inc., priority 2015, dated 2018).

This test can be described thus: Static antipolymerant screening: polystyrene formed in heated, inhibitor-free styrene (ASTM D2121 methanol precipitation, absorbance at 420 nm). The note with it: 0.33 mmolal antipolymerant in styrene, 122° C., anaerobic. As for the experimental part: The antipolymerant performance of the isolated cinnamyl quinone methide, 2,6-di-tert-butyl-4-(3-phenylallylidene)cyclohexa-2,5-dienone (7-Cinn-QM), was determined using the static method whereby a 0.31 mM (0.33 mmolal) solution of the retarder was prepared in inhibitor-free styrene. To start with, 4-tert-butylcatechol (TBC) was removed by eluting styrene through alumina. To prepare a 0.31 mM solution of 7-Cinn-QM, 0.0264 g were dissolved in freshly de-inhibited styrene to give a solution of 250 grams. Into twenty-four Ace Glass #15 threaded pressure tubes equipped with PTFE screw caps and fluoroelastomer (FETFE) O-rings, 9 mL of the solution were charged into each tube. To purge as much oxygen out of the solutions as possible, each solution was sparged with nitrogen for 2 minutes. Immediately after sparging each solution, the tube was sealed and the solution kept under a nitrogen gas overhead. […] After 30 minutes, and every 15 minutes thereafter, four tubes were retrieved from the block and the polymerization reaction quenched by cooling in an ice bath. The cooled polymer solutions were immediately diluted with toluene.
To measure the amount of polymer formed, methanol was used to precipitate the polymer in accordance with the ASTM D2121 method. The absorbance of the polymer-methanol admixtures were measured at 420 nm. Using a calibration curve, the polymer concentrations in each of the tubes was measured and the four data points for each time were averaged.
For comparative purpose, 0.0243 g of 7-Ph-QM were dissolved in 350 g of inhibitor-free styrene after which the antipolymerant performance was tested according to the procedure in Example 3.
Similarly, a styrene solution comprising 0.155 mmolal of 7-Ph-QM and 0.155 mmolal of 7-Cinn-QM was used to screen the performance of the combination in accordance with the procedure in Example 3.

As for 7-Phenyl Quinone Methide [7-Ph-QM], the “Polystyrene (%)” value is 0.13% (Time 30); 0.49% (Time 45); 0.89% (Time 60); 1.08% (Time 75); 1.37% (Time 90); 1.56% (Time 105). Further, the “Polystyrene (%)” value reads like this: (Time 120) 2.4%; (Time 135) 3.4%.

Turning to `CC(C)(C)C1=CC(=CC=Cc2ccccc2)C=C(C(C)(C)C)C1=O` [7-Cinn-QM, 2,6-di-tert-butyl-4-(3-phenylallylidene)cyclohexa-2,5-dienone], the “Polystyrene (%)” value came out at 0.05% (Time 30); 0.20% (Time 45); 0.41% (Time 60); 0.88% (Time 75); 1.54% (Time 90); 3.39% (Time 105). Moreover, the “Polystyrene (%)” value reads like this: (Time 120) 5.13%; (Time 135) 7.07%.
